Test results: article PMC7417534, “Cytochrome P450 inhibition potential and initial genotoxic evaluation of 14-O-[(4,6-diaminopyrimidine-2-yl)thioacetyl] mutilin” (Scientific Reports, 2020)
Read-outs that look alike come from different tables or passages of the source.

How the values were obtained:
S. typhimurium TA102 = settings: − S9
Source text: (§1) S. typhimurium strains TA97, TA98, TA100, TA102 and TA1535 were stored and maintained as provided in the standard protocol. Each of the strains was checked for their genetic integrity prior to the experiment, and tested for biotin dependence, histidine dependence, biotin and histidine dependence, rfa marker (crystal violet) and presence of the plasmid pKM101 (ampicillin resistance) or pAQ1 (tetracycline resistance). Different strains were used to identify different types of mutations.
The test was carried out at five different concentrations of DPTM. […] Then 1 mL solution was diluted with distilled water by two fold.
(§2) The Ames test of DPTM was conducted as described in the literatures[42],[43] with some modifications. Briefly, 1 mL of strain was inoculated into 5 mL of nutrient broth, followed by incubating overnight at 37 °C. The mixture comprised respective strains, drug, negative and positive controls with the S9 for testing in the presence of metabolic activation system. For testing without S9, 1 × phosphate buffer saline (PBS, pH 7.4) replaced the S9 mix. The obtained mixtures were added into the tube, mixed well and incubated at 37 °C for 20 min. Then, the top agar was melted and 2 mL of this melted top agar was added to each tube and gently mixed. […] The results were expressed as the number of revertant colonies per plate. The experiments were performed in triplicate.

S. typhimurium TA97 = assay: Ames test, strain TA97; assay type: cell-based, Salmonella typhimurium; settings: − S9
Source text: as §1
(§3) The test was carried out at five different concentrations of DPTM. […] Then 1 mL solution was diluted with distilled water by two fold. […] The negative control used in this experiment was 1 mL DMSO which was directly incorporated into 9 mL melted top agar.
as §2

CYP1A2 = molecular target: T1, CYP1A2 (Homo sapiens, UniProt P05177); assay: Cocktail CYP inhibition in human liver microsomes, CYP1A2 (phenacetin); assay type: in vitro ADME; settings: cocktail method, read-out: IC50 values, CYP1A2 in HLMs
T1 construct: containing 100 μL RLMs or HLMs; tissue Research Institute for Liver Diseases (Shanghai) Co., Ltd; host or cells: pooled human liver microsomes
T1 sequence (P05177 whole entry): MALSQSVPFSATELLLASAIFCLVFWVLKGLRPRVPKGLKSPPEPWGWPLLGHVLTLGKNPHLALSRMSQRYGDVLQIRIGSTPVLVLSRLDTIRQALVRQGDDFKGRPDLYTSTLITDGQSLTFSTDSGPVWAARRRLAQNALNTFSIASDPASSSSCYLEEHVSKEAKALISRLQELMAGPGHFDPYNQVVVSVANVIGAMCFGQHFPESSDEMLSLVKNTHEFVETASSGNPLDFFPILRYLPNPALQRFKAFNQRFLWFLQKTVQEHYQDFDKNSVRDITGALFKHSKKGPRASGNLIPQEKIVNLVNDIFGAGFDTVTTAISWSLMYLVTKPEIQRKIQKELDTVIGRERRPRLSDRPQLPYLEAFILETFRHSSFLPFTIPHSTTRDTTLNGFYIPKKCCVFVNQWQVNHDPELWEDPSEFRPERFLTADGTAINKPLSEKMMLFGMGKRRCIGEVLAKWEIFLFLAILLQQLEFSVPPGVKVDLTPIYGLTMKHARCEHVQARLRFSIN
Protocol: (§4) We used the cocktail method to study the inhibition activities of DPTM against CYP enzymes in RLMs and HLMs with slight modification. DPTM (250 μmol) was dissolved in 1.25 mL methanol to a solution and then diluted with methanol and water to 2, 10, 20, 100, 200, 400, 1,000 and 2000 μM, respectively. The obtained serial dilutions (10 μL) were added to the incubation mixtures (200 μL total volume), containing 100 μL RLMs or HLMs (final concentration was 5 μg/μL, respectively), 10 μL glucose-6-phosphate (final concentration was 1 mM), 10 μL glucose-6-phosphate dehydrogenase (final concentration was 0.1 U/L), 20 μL potassium phosphate buffer (final concentration was 0.01 M) and 20 μL MgCl2 (final concentration was 2 mM), to give the final concentrations were 0.1, 0.5, 1, 5 10, 20, 50, and 100 μM, respectively. For the groups that in the absence of DPTM, 10 μL methanol (1%) replaced the DPTM and was added to the incubation mixtures. […] The final concentration of methanol in all the incubation mixtures, including the blank group, was […]. […] The determined metabolic substrates were used for calculating the relative enzyme activity (Erel) by the following formula: Erel (%) = Ci(n)/Ci(0) × 100%, in which Ci(n) was the determined metabolic substrates in the presence of varying concentrations of DPTM and Ci(0) was the determined metabolic substrates in the absence of DPTM. […]

S. typhimurium TA98 = assay: Ames test, strain TA98; assay type: cell-based, Salmonella typhimurium; settings: − S9
Source text: as §1, §3, §2

CYP2C9 = molecular target: T2, CYP2C9 (Homo sapiens, UniProt P11712); assay: Cocktail CYP inhibition in human liver microsomes, CYP2C9 (tolbutamide); assay type: in vitro ADME; settings: cocktail method, read-out: IC50 values, CYP2C9 in HLMs
T2 construct: containing 100 μL RLMs or HLMs; tissue Research Institute for Liver Diseases (Shanghai) Co., Ltd; host or cells: pooled human liver microsomes
T2 sequence (P11712 whole entry): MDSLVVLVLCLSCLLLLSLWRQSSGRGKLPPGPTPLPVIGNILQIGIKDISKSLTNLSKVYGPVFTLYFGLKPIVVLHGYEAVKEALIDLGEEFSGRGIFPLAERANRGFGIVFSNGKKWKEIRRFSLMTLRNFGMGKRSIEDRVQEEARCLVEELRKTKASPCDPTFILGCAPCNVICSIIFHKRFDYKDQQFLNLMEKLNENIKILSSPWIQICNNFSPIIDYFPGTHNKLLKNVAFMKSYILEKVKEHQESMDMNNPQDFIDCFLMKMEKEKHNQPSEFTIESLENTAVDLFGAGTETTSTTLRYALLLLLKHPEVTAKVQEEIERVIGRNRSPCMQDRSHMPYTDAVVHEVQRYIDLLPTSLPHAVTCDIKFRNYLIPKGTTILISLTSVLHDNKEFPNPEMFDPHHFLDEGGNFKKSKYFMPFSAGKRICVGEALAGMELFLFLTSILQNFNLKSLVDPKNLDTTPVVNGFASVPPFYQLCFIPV
Protocol: as §4

CYP2E1 = molecular target: T3, CYP2E1 (Rattus norvegicus, UniProt P05182); assay: Cocktail CYP inhibition in rat liver microsomes, CYP2E1 (chlorzoxazone); assay type: in vitro ADME; settings: cocktail method, read-out: IC50 values, CYP2E1 in RLMs
T3 construct: containing 100 μL RLMs or HLMs; tissue Research Institute for Liver Diseases (Shanghai) Co., Ltd; host or cells: male SD rat liver microsomes
T3 sequence (P05182 whole entry): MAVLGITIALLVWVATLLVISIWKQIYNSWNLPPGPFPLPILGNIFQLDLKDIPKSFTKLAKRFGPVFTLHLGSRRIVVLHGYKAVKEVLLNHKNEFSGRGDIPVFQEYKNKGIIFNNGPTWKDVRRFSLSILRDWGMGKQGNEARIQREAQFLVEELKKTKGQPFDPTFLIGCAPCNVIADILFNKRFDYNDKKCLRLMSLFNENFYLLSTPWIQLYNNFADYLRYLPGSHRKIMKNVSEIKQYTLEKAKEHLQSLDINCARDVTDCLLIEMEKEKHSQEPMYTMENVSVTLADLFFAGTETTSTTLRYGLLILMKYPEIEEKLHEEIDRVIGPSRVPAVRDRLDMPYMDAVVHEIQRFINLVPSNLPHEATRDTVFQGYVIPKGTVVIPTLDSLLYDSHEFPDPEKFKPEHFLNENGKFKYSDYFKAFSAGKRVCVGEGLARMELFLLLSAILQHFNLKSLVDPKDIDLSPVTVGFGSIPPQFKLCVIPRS
Protocol: as §4

PXR mRNA = PXR mRNA expression in Hep G2 cells (real-time PCR); assay type: cell-based, human; settings: 4 and 12 h, three doses
Protocol: The logarithmic growth phase Hep G2 cells were seeded into 12-well plastic plates at a density of […]. After incubation at 37 °C under 5% CO2 for 24 h, the media were then replaced with 1 mL of serial dilutions of the DPTM (4.98, 0.16 and 0.08 mM) in fresh media. When cells were incubated for 2, 4 and 12 h at 37 °C under 5% CO2, the RNA was isolated using the Trizol reagent according to the manufacturer’s protocol. Total RNA (5 μL) was transcribed into cDNA by using the PrimeScript RT reagent Kit (Perfect Real Time). The obtained cDNA (5 μL) was added for 45 cycles of PCR amplification to detect the mRNA expression (the primers and sequences used herein were given in Table 3) using the ABI Villa TM7Dx real-time PCR system (Gaithersburg, USA). Glyceraldehyde-3-phosphate dehydrogenase (GAPDH) was used as reference gene. All reactions were performed in a final volume of 20 μL (10 μL of 2 × SYBR Green Real-time PCR Master Mix, 2 μL of cDNA and 2 μL of the primers and 6 μL DEPC water) and executed in triplicate.

CYP2D1 = molecular target: T4, CYP2D1 (Rattus norvegicus, UniProt P10633); assay: Cocktail CYP inhibition in rat liver microsomes, CYP2D1 (metoprolol); assay type: in vitro ADME; settings: cocktail method, read-out: IC50 values, CYP2D1 in RLMs
T4 construct: containing 100 μL RLMs or HLMs; tissue Research Institute for Liver Diseases (Shanghai) Co., Ltd; host or cells: male SD rat liver microsomes
T4 sequence (P10633 whole entry): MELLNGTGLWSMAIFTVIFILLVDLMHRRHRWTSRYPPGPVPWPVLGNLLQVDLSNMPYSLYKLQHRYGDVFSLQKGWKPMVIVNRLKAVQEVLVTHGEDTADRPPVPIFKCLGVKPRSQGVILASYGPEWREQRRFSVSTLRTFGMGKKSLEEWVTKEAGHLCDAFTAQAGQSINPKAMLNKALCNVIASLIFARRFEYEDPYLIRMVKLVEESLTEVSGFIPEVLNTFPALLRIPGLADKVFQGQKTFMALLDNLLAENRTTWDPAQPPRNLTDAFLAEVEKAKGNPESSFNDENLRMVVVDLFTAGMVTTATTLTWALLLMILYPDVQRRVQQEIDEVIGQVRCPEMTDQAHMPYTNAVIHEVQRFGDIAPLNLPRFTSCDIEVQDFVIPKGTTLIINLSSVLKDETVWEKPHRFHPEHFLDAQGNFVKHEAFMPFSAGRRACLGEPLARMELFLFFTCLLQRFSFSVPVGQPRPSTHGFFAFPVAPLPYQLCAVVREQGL
Protocol: as §4

## C=CC1(C)CC(OC(=O)CSc2nc(N)cc(N)n2)C2(C)C(C)CCC3(CCC(=O)C32)C(C)C1O (stereo not shown) [DPTM, 14-O-[(4,6-Diaminopyrimidine-2-yl)thioacetyl] mutilin]
S. typhimurium TA102; dose 0.25 μmol/plate
  revertant colonies per plate, TA102: 256 ± 20 CFU
S. typhimurium TA102; dose 0.50 μmol/plate
  revertant colonies per plate, TA102: 241 ± 10 CFU
S. typhimurium TA102; dose 1.00 μmol/plate
  revertant colonies per plate, TA102: 260 ± 17 CFU
S. typhimurium TA102; dose 1.99 μmol/plate
  revertant colonies per plate, TA102: 264 ± 15 CFU
S. typhimurium TA102; dose 3.98 μmol/plate
  revertant colonies per plate, TA102: 268 ± 12 CFU
S. typhimurium TA97; dose 0.50 μmol/plate
  revertant colonies per plate, TA97: 165 ± 14 CFU
S. typhimurium TA97; dose 1.00 μmol/plate
  revertant colonies per plate, TA97: 171 ± 8 CFU
S. typhimurium TA97; dose 1.99 μmol/plate
  revertant colonies per plate, TA97: 174 ± 17 CFU
S. typhimurium TA97; dose 3.98 μmol/plate
  revertant colonies per plate, TA97: 169 ± 14 CFU
CYP1A2
  IC50: > 100 µM
S. typhimurium TA98; dose 0.25 μmol/plate
  revertant colonies per plate, TA98: 33 ± 6 CFU
S. typhimurium TA98; dose 0.50 μmol/plate
  revertant colonies per plate, TA98: 30 ± 10 CFU
S. typhimurium TA98; dose 1.00 μmol/plate
  revertant colonies per plate, TA98: 27 ± 8 CFU
S. typhimurium TA98; dose 1.99 μmol/plate
  revertant colonies per plate, TA98: 32 ± 8 CFU
S. typhimurium TA98; dose 3.98 μmol/plate
  revertant colonies per plate, TA98: 28 ± 11 CFU
CYP2C9
  IC50: > 100 µM
CYP2E1
  IC50: 61 ± 8 µM
PXR mRNA
  PXR mRNA expression versus control: significantly increased
CYP2D1
  IC50: > 100 µM
